Measured values from ChEMBL document CHEMBL1139524, “Decoys for docking” (J Med Chem, 2005).

These molecules were tested against Endolysin (Enterobacteria phage T4, UniProt P00720, L99A).
Parameters: species or system Tequatrovirus T4

| Structure (SMILES) | Kd [µM] |
| --- | --- |
| CCc1cccc(C)c1 | 198 |
| CCCc1ccccc1 | 18 |
| c1ccc2sccc2c1 [BENZOTHIOPHENE] | 74 |
| Cc1cccc(C)c1 [M-XYLENE] | 364 |
| CCc1ccccc1C | 505 |
| CCc1ccc(C)cc1 | 120 |
| c1ccc2occc2c1 [BENZOFURAN] | 112 |
| C1=Cc2ccccc2C1 [INDENE] | 193 |

Each molecule was assayed against Endolysin (Enterobacteria phage T4, UniProt P00720, L99A/M102Q) (assay: Dissociation constant against T4 lysozyme mutant L99A/M102Q).
Parameters: species or system Tequatrovirus T4

| Structure (SMILES) | Kd [µM] |
| --- | --- |
| Oc1cccc(Cl)c1 | 56 |
| Cc1cc[nH]c1 | 159 |
| Nc1ccccc1F | 100 |

What follows are molecules tested against T1, Beta-lactamase (Escherichia coli K-12, UniProt P00811) (assay: Apparent inhibitory constant against beta-lactamase AmpC from Escherichia coli).
T1 sequence (P00811 whole entry): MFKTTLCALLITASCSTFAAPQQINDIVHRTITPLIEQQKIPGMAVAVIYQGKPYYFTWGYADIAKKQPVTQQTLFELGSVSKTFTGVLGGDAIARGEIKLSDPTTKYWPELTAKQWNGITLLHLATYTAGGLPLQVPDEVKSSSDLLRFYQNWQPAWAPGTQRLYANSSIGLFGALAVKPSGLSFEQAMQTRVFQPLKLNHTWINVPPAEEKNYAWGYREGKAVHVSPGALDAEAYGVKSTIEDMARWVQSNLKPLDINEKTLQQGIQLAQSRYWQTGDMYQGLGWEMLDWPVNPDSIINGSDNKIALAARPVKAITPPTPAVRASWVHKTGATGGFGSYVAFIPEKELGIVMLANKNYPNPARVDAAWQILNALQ

| Structure (SMILES) | Ki [µM] |
| --- | --- |
| NS(=O)(=O)c1ccc(NS(=O)(=O)c2ccsc2C(=O)O)cc1 | 93 |

What follows are molecules tested against T1, Beta-lactamase (assay: Inhibitory constant against beta-lactamase AmpC from Escherichia coli).

| Structure (SMILES) | Ki [µM] |
| --- | --- |
| O=C(O)c1sccc1S(=O)(=O)Nc1ccc(Cl)cc1 | 26 |
